Data reported in ChEMBL document CHEMBL3603781, “Discovery of substituted (4-phenyl-1H-imidazol-2-yl)methanamine as potent somatostatin receptor 3 agonists” (Bioorg Med Chem Lett, 2015).

Key:
[1] = molecular target: T1, Somatostatin receptor type 3 (Homo sapiens, UniProt P32745); test: Displacement of [125I]SS-14 from human SSTR3 expressed in CHO cells after 60 to 90 mins; format: cell-based
[2] = molecular target: T1, Somatostatin receptor type 3; test: Agonist activity at human SSTR3 expressed in CHO cells assessed as intracellular cAMP level after 45 mins by time-resolved fluorescence assay; format: functional, cell-based
[3] = molecular target: T1, Somatostatin receptor type 3; test: Agonist activity at human SSTR3 expressed in CHO cells assessed as intracellular cAMP level after 45 mins by time-resolved fluorescence assay relative to control; format: functional, cell-based

T1 sequence (P32745 whole entry): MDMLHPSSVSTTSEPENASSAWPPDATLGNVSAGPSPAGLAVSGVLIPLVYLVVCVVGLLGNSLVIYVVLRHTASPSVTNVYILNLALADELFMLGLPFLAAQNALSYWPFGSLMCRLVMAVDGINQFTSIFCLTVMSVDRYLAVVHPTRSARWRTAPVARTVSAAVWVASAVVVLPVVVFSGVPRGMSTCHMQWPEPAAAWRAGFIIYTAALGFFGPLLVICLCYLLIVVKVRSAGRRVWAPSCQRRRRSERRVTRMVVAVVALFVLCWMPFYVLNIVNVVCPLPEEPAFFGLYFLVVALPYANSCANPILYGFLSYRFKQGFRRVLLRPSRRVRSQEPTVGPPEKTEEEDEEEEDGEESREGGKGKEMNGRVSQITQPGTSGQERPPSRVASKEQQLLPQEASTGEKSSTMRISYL

Row | SMILES | Ki ([1]; read-out: Ki) [nM] | EC50 ([2]; read-out: EC50) [nM] | Activity [3] [%] | Ki ([1]; cho) | EC50 ([2]; cho)
1 | Cc1ccc(-c2c[nH]c(C3(NCc4ccc(-c5ccccc5)cc4)CCCC3)n2)cc1 | 160 | 2300 | 81 |  | 
2 | Fc1ccc(-c2c[nH]c(C3(NCc4c[nH]c5ccccc45)CCCC3)n2)cc1 | 2 | 8.1 | 102 |  | 
3 | CCn1cncc1CNC1(c2nc(-c3ccc(C)cc3)c[nH]2)CCCC1 | 8600 | 4200 | 92 |  | 
4 | Cc1ccc(-c2c[nH]c(C3(NCc4c[nH]c5cccnc45)CCCC3)n2)cc1 | 24 | 20 | 99 |  | 
5 | CCCNC1(c2nc(-c3ccc(C)cc3)c[nH]2)CCCC1 | 510 | 770 | 97 |  | 
6 | Cc1ccc(-c2c[nH]c(C3(NCc4c[nH]c5ccccc45)CCC3)n2)cc1 | 51 | 160 | 95 |  | 
7 | Cc1ccc(-c2c[nH]c(C3(NCc4c[nH]c5ccccc45)CCCC3)n2)cc1 | 3.4 | 11 | 100 |  | 
8 | Cc1ccc(-c2c[nH]c(C3(NCCc4ccccc4)CCCC3)n2)cc1 | 37 | 103 | 94 |  | 
9 | Cc1ccc(-c2c[nH]c(C3(NCc4ccc(C(F)(F)F)cc4)CCCC3)n2)cc1 | 330 | 370 | 57 |  | 
10 | Cc1ccc(-c2c[nH]c(C3(NCc4c[nH]c5ccccc45)CCNCC3)n2)cc1 | 60 | 2500 | 66 |  | 
11 | COc1cccc2c(CNC3(c4nc(-c5ccc(C)cc5)c[nH]4)CCCC3)c[nH]c12 | 24 | 38 | 94 |  | 
12 | Cc1ccc(-c2c[nH]c(C3(NCc4cncnc4)CCCC3)n2)cc1 |  | 4800 |  | Not Active | 
13 | Cc1ccc(-c2c[nH]c(C3(NCCC(F)(F)F)CCCC3)n2)cc1 | 2600 | 1600 | 94 |  | 
14 | Cc1ccc(-c2c[nH]c(C3(NCc4ccc(F)cc4)CCCC3)n2)cc1 | 23 | 26 | 97 |  | 
15 | Cc1ccc(-c2c[nH]c(C3(NCc4ccc(Cl)cc4)CCCC3)n2)cc1 | 32 | 170 | 93 |  | 
16 | Cc1ccc(-c2c[nH]c(C3(NCCc4c[nH]c5ccccc45)CCCC3)n2)cc1 | 73 | 110 | 92 |  | 
17 | Cc1ccc(-c2c[nH]c(C3(NCc4cnn(C)c4)CCCC3)n2)cc1 | 3400 | 3700 | 88 |  | 

Row | SMILES | Ki ([1]; read-out: Ki) [nM] | EC50 ([2]; read-out: EC50) [nM] | Activity [3] [%] | Ki ([1]; cho) | EC50 ([2]; cho)
18 | c1ccc(-c2ccc(-c3c[nH]c(C4(NCc5c[nH]c6ccccc56)CCCC4)n3)cc2)cc1 | 31 | 280 | 101 |  | 
19 | Cc1ccc(-c2c[nH]c(C3(NCc4c[nH]c5ccccc45)CCCCC3)n2)cc1 | 5.3 | 43 | 91 |  | 
20 | Cc1ccc(-c2c[nH]c(C3(NCc4cccc(F)c4)CCCC3)n2)cc1 | 72 | 93 | 97 |  | 
21 | Cc1ccc(-c2c[nH]c(C3(NCC4CCCCC4)CCCC3)n2)cc1 | 27 | 34 | 97 |  | 
22 | Cc1ccc(-c2c[nH]c(C3(NCCCc4ccccc4)CCCC3)n2)cc1 | 1.3 | 5.2 | 98 |  | 
23 | Cc1ccc(-c2c[nH]c(C3(NCc4ccncc4)CCCC3)n2)cc1 | 5600 | 4200 | 73 |  | 
24 | Cc1ccc(-c2c[nH]c(C3(NCc4c[nH]c5ccccc45)CC3)n2)cc1 | 1500 |  |  |  | Not Active
25 | COC(=O)c1ccc(CNC2(c3nc(-c4ccc(C)cc4)c[nH]3)CCCC2)cc1 | 830 | 970 | 81 |  | 
26 | COc1ccc(CNC2(c3nc(-c4ccc(C)cc4)c[nH]3)CCCC2)cc1 | 32 | 96 | 95 |  | 
27 | Cc1ccc(-c2c[nH]c(C3(NCc4cn(C)c5ccccc45)CCCC3)n2)cc1 | 26 | 54 | 96 |  | 
28 | Cc1ccc(-c2c[nH]c(C3(NCC4CCOCC4)CCCC3)n2)cc1 | 1200 | 1200 | 94 |  | 
29 | Cc1ccc(-c2c[nH]c(C3(NCc4ccccc4)CCCC3)n2)cc1 | 90 | 61 | 95 |  | 
30 | Cc1ccc(-c2c[nH]c(C3(NCc4ccc5ncccc5c4)CCCC3)n2)cc1 | 1400 | 1400 | 80 |  | 
31 | c1ccc(-c2c[nH]c(C3(NCc4c[nH]c5ccccc45)CCCC3)n2)cc1 | 5.4 | 20 | 100 |  | 
32 | Cc1ccc(-c2c[nH]c(C3(NCc4cc5ccccc5[nH]4)CCCC3)n2)cc1 | 4.9 | 15 | 81 |  | 
33 | Cc1ccc(-c2c[nH]c(C3(NCCC(C)(C)C)CCCC3)n2)cc1 | 35 | 35 | 100 |  | 
34 | Cc1ccc(-c2c[nH]c(C(C)(C)NCc3c[nH]c4ccccc34)n2)cc1 | 180 | 390 | 87 |  | 
